Data published in patent publication US20250332173A1, “COMPOUNDS AND METHODS FOR MODULATING NUCLEIC ACID SPLICING” (REMIX THERAPEUTICS INC., priority 2021, published 2025).
Like-named read-outs stand apart in the source and are kept apart here.

Assays:
HTT mRNA = assay: RT-qPCR splicing assay, HTT canonical junction (CJ) and alternative junction (AJ) mRNA; type: cell-based, human; conditions: Homo sapiens; for AC50: increase in HTT alternative junction (AJ) mRNA, read-out: HTT AJ AC50
Method in brief: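 Splicing switches were read by TaqMan RT-qPCR on lysates, quantifying exon-exon junctions of the canonical and alternative-exon isoforms. Lysates came from K562 (GAPDH/GUSB reference) or A673 (PPIA reference) cells exposed 24 h to compound in 11 threefold steps from 10 uM, with DMSO ≤0.25%.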

[1] = test system: K562 (human chronic myelogenous leukemia) cells; assay: Cell Titer Glo 2.0 cell viability assay; type: cell-based; conditions: Homo sapiens, K562, 72 h, K562 cells, 72 hours, Cell Titer Glo 2.0; read-out: K562 GI50
MYB = assay: HiBiT protein abundance assay, MYB HiBiT K562 cell line; type: cell-based, human; conditions: HiBiT K562 cell line, 24 hours, top dose 10 μM; read-out: Effect on protein abundance, MYB (IC50 category)
Method in brief: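 Tagged-protein abundance measured by split-NanoBiT luminescence after lysis, following 24 h compound exposure (37° C; 10 μM top, 3-fold, 10 points; DMSO ≤0.25%) of HiBiT knock-in K562 cells. Percent response vs DMSO and unmodified-cell controls; 4-parameter logistic interpolation at 50% gave IC50.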

[2] = decrease in HTT canonical junction (CJ) mRNA, RT-qPCR, read-out: HTT CJ IC50
[3] = canonical junction qPCR panel, Table 5, read-out: HTT (decrease in CJ mRNA levels, IC50)
[4] = Table 5 panel, canonical junction qPCR, compound concentration having 50% response in CJ decrease, read-out: HTT IC50 (decrease in CJ mRNA levels)

Compound: Cc1cn2cc(-c3ccc4c(=O)n(C5CCNCC5)ccc4n3)cc(C)c2n1 [Compound 1241, 2-(2,8-dimethylimidazo[1,2-a]pyridin-6-yl)-6-(piperidin-4-yl)-1,6-naphthyridin-5(6H)-one]
- IC50 (HTT mRNA; [2]): 100 to 1000 nM
- AC50 (HTT mRNA; RT-qPCR): 100 to 1000 nM
- IC50 (HTT mRNA; [3]): 100 to 1000 nM
- GI50 [1]: < 100 nM
- IC50 (MYB): < 100 nM

Compound: Cc1c(O)c(-c2ncc3c(=O)n([C@H]4C[C@H](N)C4)ccc3n2)cc2cn(C)nc12 [Compound 1432, 6-((1r,3r)-3-aminocyclobutyl)-2-(6-hydroxy-2,7-dimethyl-2H-indazol-5-yl)pyrido[4,3-d]pyrimidin-5(6H)-one]
- IC50 (HTT mRNA; [2]): 1000 to 10000 nM
- AC50 (HTT mRNA; RT-qPCR): 1000 to 10000 nM
- IC50 (HTT mRNA; [3]): 1000 to 10000 nM
- GI50 [1]: 100 to 1000 nM
- IC50 (MYB): 100 to 1000 nM

Compound: Cc1cc(-c2cc3ccn(C4CCN(C5CC5)CC4)c(=O)c3cn2)cc2cn(C)nc12 [Compound 1208, 2-(1-cyclopropylpiperidin-4-yl)-6-(2,7-dimethyl-2H-indazol-5-yl)-2,7-naphthyridin-1(2H)-one]
- IC50 (HTT mRNA; [2]): > 10000 nM
- AC50 (HTT mRNA; RT-qPCR): > 10000 nM
- IC50 (HTT mRNA; [4]): > 10000 nM
- GI50 [1]: > 10000 nM
- IC50 (MYB): 1000 to 10000 nM

Compound: Cc1c(O)c(-c2ncc3c(=O)n(C45CCC(N)(CC4)C5)ccc3n2)cc2cn(C)nc12 [Compound 1428]
- IC50 (HTT mRNA; [2]): > 10000 nM
- AC50 (HTT mRNA; RT-qPCR): 1000 to 10000 nM
- IC50 (HTT mRNA; [3]): 1000 to 10000 nM
- GI50 [1]: < 100 nM
- IC50 (MYB): < 100 nM

Compound: Cc1cn2cc(-c3ncc4c(=O)n(C5CCNC5)ccc4n3)cc(F)c2n1 (stereo not shown) [Compound 1215]
- IC50 (HTT mRNA; [2]): > 10000 nM
- AC50 (HTT mRNA; RT-qPCR): > 10000 nM
- IC50 (HTT mRNA; [4]): > 10000 nM
- GI50 [1]: 1000 to 10000 nM
- IC50 (MYB): 100 to 1000 nM

Compound: Cc1c(O)c(-c2ccc3c(=O)n(C4CC(C)NC(C)C4)ccc3n2)cc2cn(C)nc12 (stereo not shown) [Compound 1447, 6-(2,6-dimethyl-4-piperidyl)-2-(6-hydroxy-2,7-dimethyl-indazol-5-yl)-1,6-naphthyridin-5-one]
- IC50 (HTT mRNA; [2]): 100 to 1000 nM
- AC50 (HTT mRNA; RT-qPCR): 100 to 1000 nM
- IC50 (HTT mRNA; [3]): 100 to 1000 nM
- GI50 [1]: 100 to 1000 nM
- IC50 (MYB): < 100 nM

Compound: Cn1cc2cc(-c3ccc4c(=O)n([C@@H]5CCNC5)ccc4n3)c(O)c(F)c2n1 [Compound 1452, 2-(7-fluoro-6-hydroxy-2-methyl-indazol-5-yl)-6-[(3R)-pyrrolidin-3-yl]-1,6-naphthyridin-5-one]
- IC50 (HTT mRNA; [2]): 100 to 1000 nM
- AC50 (HTT mRNA; RT-qPCR): 100 to 1000 nM
- IC50 (HTT mRNA; [3]): 100 to 1000 nM
- GI50 [1]: 100 to 1000 nM
- IC50 (MYB): 100 to 1000 nM

Compound: Cc1c(O)c(-c2ncc3c(=O)n(C4CCNC4)ccc3n2)cc2cn(C)nc12 (stereo in doubt) [Compound 1440, (6S)-2-(6-hydroxy-2,7-dimethyl-indazol-5-yl)-6-pyrrolidin-3-yl-pyrido[4,3-d]pyrimidin-5-one]
- IC50 (HTT mRNA; [2]): > 10000 nM
- AC50 (HTT mRNA; RT-qPCR): > 10000 nM
- IC50 (HTT mRNA; [3]): > 10000 nM
- GI50 [1]: 100 to 1000 nM
- IC50 (MYB): 100 to 1000 nM

Compound: Cc1cn2nc(-c3cc4ccn(C5CCNCC5)c(=O)c4cn3)cc(C)c2n1 [Compound 1198, 6-(2,8-dimethylimidazo[1,2-b]pyridazin-6-yl)-2-(piperidin-4-yl)-2,7-naphthyridin-1(2H)-one]
- IC50 (HTT mRNA; [2]): 100 to 1000 nM
- AC50 (HTT mRNA; RT-qPCR): 100 to 1000 nM
- IC50 (HTT mRNA; [4]): 100 to 1000 nM
- GI50 [1]: 100 to 1000 nM
- IC50 (MYB): 100 to 1000 nM

Compound: Cc1c(O)c(-c2ccc3c(=O)n([C@H]4CCNC4)ccc3n2)cc2cn(C)nc12 [Compound 1449, 2-(6-hydroxy-2,7-dimethyl-indazol-5-yl)-6-[(3S)-pyrrolidin-3-yl]-1,6-naphthyridin-5-one]
- IC50 (HTT mRNA; [2]): 1000 to 10000 nM
- AC50 (HTT mRNA; RT-qPCR): 1000 to 10000 nM
- IC50 (HTT mRNA; [3]): 1000 to 10000 nM
- GI50 [1]: 100 to 1000 nM
- IC50 (MYB): 100 to 1000 nM

Compound: Cn1cc2cc(-c3ccc4c(=O)n([C@H]5CCNC5)ccc4n3)c(O)c(F)c2n1 [Compound 1451, 2-(7-fluoro-6-hydroxy-2-methyl-indazol-5-yl)-6-[(3S)-pyrrolidin-3-yl]-1,6-naphthyridin-5-one]
- IC50 (HTT mRNA; [2]): 100 to 1000 nM
- AC50 (HTT mRNA; RT-qPCR): 100 to 1000 nM
- IC50 (HTT mRNA; [3]): 100 to 1000 nM
- GI50 [1]: 100 to 1000 nM
- IC50 (MYB): 100 to 1000 nM

Compound: Cn1cc2nc(-c3ccc4c(=O)n(C5CCNCC5)ccc4n3)c(O)cc2n1 [Compound 1296]
- IC50 (HTT mRNA; [2]): 100 to 1000 nM
- AC50 (HTT mRNA; RT-qPCR): < 100 nM
- IC50 (HTT mRNA; [3]): < 100 nM
- GI50 [1]: 100 to 1000 nM
- IC50 (MYB): < 100 nM

Compound: Cn1cc2cc(-c3ncc4c(=O)n(C5CCNC5)ccc4n3)c(O)c(F)c2n1 (stereo not shown) [Compound 1223]
- IC50 (HTT mRNA; [2]): 1000 to 10000 nM
- AC50 (HTT mRNA; RT-qPCR): 1000 to 10000 nM
- IC50 (HTT mRNA; [4]): 1000 to 10000 nM
- GI50 [1]: 1000 to 10000 nM
- IC50 (MYB): 100 to 1000 nM

Compound: Cc1cn2cc(-c3ncc4c(=O)n(C5CCNCC5)ccc4n3)cc(C#N)c2n1 [Compound 1301]
- IC50 (HTT mRNA; [2]): 100 to 1000 nM
- AC50 (HTT mRNA; RT-qPCR): 100 to 1000 nM
- IC50 (HTT mRNA; [3]): 100 to 1000 nM
- GI50 [1]: 100 to 1000 nM
- IC50 (MYB): 100 to 1000 nM
